Experimental data reported in PubChem BioAssay AID179 (DTP/NCI, 2004).
Calls of active or inactive are those of the source.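 How the source made its calls: active means compounds giving half or more protection of infected cells from virus-caused growth loss, again on retest; inactive means the rest.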 Where a SMILES comes first, the peptide text is derived from it. The star is where a group is joined. Cbz = O=C(OCc1ccccc1)*

Tested on: CEM cells HIV-1 protection, formazan growth assay
Experiment: NCI AIDS Antiviral Assay
Conditions: for IC50: measured here: growth of uninfected CEM cells
In short: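 Five concentrations of each compound were applied to infected and uninfected human CEM cells. Protection from HIV-1 was judged from growth measured with a soluble formazan assay.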

SMILES | EC50 | IC50 | outcome
O=C(Sc1c(-c2ccccc2)c(=O)n(-c2ccccc2)c(=S)n1-c1ccccc1)c1cccs1 | > 200 µM | 21.9 µM | –
O=[N+]([O-])c1ccc2c(c1)c1nn2CCCCOc2nn(c3ccc([N+](=O)[O-])cc23)CCCCO1 | > 200 µM | > 200 µM | –
O=C1CCCC(=O)N1n1c(Cc2ccccc2)n[nH]c1=O | > 200 µM | > 200 µM | –
CC1(C)CC(c2c[nH]c3ccccc23)=CC2=Nc3ccccc3C21O (stereo not given) | – | – | inactive
CS(=N)(=O)CCC(N)P(=O)(O)O (stereo not given) | > 200 µM | > 200 µM | –
Oc1cccc2cc(Cl)cnc12 | > 20 µM | 8.32 µM | –
S=C(N/N=C\C=N/NC(=S)N1CCCCCC1)N1CCCCCC1 | > 100 µM | 14.1 µM | –
O=c1cc(NNc2cccc3ccccc23)[nH]c(=O)[nH]1 | > 200 µM | 4.9 µM | –
Cc1ccc(S(=O)(=O)/C(C#N)=C/NC(=S)Nc2ccccc2)cc1 | 170 µM | > 200 µM | –
CCc1c(Cc2ccccc2)n(COCCCO[Si](C)(C)C(C)(C)C)c(=O)[nH]c1=O | > 200 µM | 10 µM | –
CC1=NN(C(=O)CC(=O)Nc2ccccc2)C(=O)C1N=Nc1ccc(C(=O)O)cc1 (stereo not given) | > 200 µM | 58.9 µM | –
O=c1c2cnccc2cc2n1CCc1c-2[nH]c2ccccc12 | > 77.6 µM | 10.2 µM | –
O=S1(=O)OC(c2cc(Br)c(O)c(Br)c2)(c2cc(Br)c(O)c(Br)c2)c2ccccc21 | – | – | inactive
Cc1ccc(NP2(=O)N(Cc3ccc(Cl)cc3)CCCN2Cc2ccc(Cl)cc2)cc1 | > 200 µM | 11 µM | –
O=C1C=C(N2CCOCC2)c2cnccc2C1=O | – | – | inactive
CC(=O)OCCOCN1C(=O)CC(=O)NC1=O | > 200 µM | > 200 µM | –
S=c1[nH]nc(COc2ccc(Cl)cc2)o1 | > 204 µM | > 204 µM | –
O=C(COc1ccc(Cl)cc1)N1CCN(C(=O)COc2ccc(Cl)cc2)c2ccccc21 | > 11 µM | > 11 µM | –
CCOC(=O)[C@@]12C[C@@H](C#N)C1N(Cc1ccccc1)[C@@H]1ON=C(c3ccc(Cl)cc3)[C@@H]1C2 (stereo not given in full) | – | – | inactive
COc1ccc(C2=C3c4cc(OC)c(OC)cc4CCN3C(=S)SS2)cc1OC | – | – | inactive
CC(=O)OCC1OC(OCCCCCCO)C(OC(C)=O)C(OC(C)=O)C1OC(C)=O (stereo not given) | > 200 µM | > 200 µM | –
CC(C)CC(NC(=O)CNC(=O)C(CC(C)C)NC(=O)C(Cc1c[nH]cn1)NC(=O)C(CC(N)=O)NC(=O)C(C)NC(=O)C1CCCN1C(=O)C(Cc1ccc(O)cc1)NC(=O)C1CCCN1C(=O)C(C)NC(=O)C(CCC(=O)O)NC(=O)C(CC(=O)O)NC(=O)C(Cc1ccccc1)NC(=O)C(CC(N)=O)NC(=O)C(C)N)C(=O)O (stereo not given) (H-ANFDEAPYPANHLGL-OH; configuration not given here) | > 38 µM | > 38 µM | –
O=c1c2ccccc2nc(-c2ccccc2)n1/N=C/c1ccccc1[N+](=O)[O-] | > 50.1 µM | > 50.1 µM | –
CS(=O)(=O)c1ccc(-c2cc(-c3ccc(S(C)(=O)=O)cc3)[n+](-c3cc(-c4ccccc4)c([O-])c(-c4ccccc4)c3)c(-c3ccc(S(C)(=O)=O)cc3)c2)cc1 | > 692 µM | > 692 µM | –
CC1(C)CC(=O)C(/C=N/c2nc(-c3cccc([N+](=O)[O-])c3)cs2)=C(O)C1 | > 200 µM | 8.32 µM | –
Fc1ccccc1C1SCc2nc3cc4ccccc4cc3n21 (stereo not given) | > 200 µM | 75.9 µM | –
CCCCNC(=O)/C(=C/c1cccc(N(CC)CC)c1)NC(=O)c1ccccc1 | > 200 µM | 25.1 µM | –
O=C1C(NS(=O)(=O)c2ccccc2)=C(N(Cc2ccccc2)Cc2ccccc2)C(=O)c2ccccc21 | > 200 µM | 72.4 µM | –
O=C(O)C(Cc1ccccc1)NC(=O)C1CCCN1C(=O)OCc1ccccc1 (stereo not drawn) (Cbz-Pro-Phe-OH; configuration not given here) | > 631 µM | > 631 µM | –
Cc1c(S(=O)(=O)c2ccccc2)c(N)n(CCN(C)C)c1C | > 200 µM | 44.7 µM | –
